Measurements: patent EP0477107B1, “Steroids contained in cyclodextrins” (Laboratoires BESINS ISCOVESCO Société anonyme dite :, priority 1990, dated 1992)
Converted amounts (≈) assume the structure as drawn. Like-named read-outs stand apart in the source and are kept apart here.

Experiment: Saturation solubility of steroids in water and in aqueous cyclodextrin solutions (25°, 72 h stirring, filtration, assay of supernatant)
Format: physicochemical
Experimental: On réalise des solutions de bétacyclodextrines à différentes concentrations de 0 à 5mM. A ces différentes solutions, on ajoute de la prégnane-5-béta-ol-3alpha-one-20 par pincées et ce jusqu'à apparition d'un précipité. On met sous agitation magnétique à 25° pendant 72 heures en prenant soin de vérifier à intervalles réguliers qu'il y a toujours saturation en stéroïdes. Au bout de 72 heures, on filtre les solutions ainsi réalisées et on dose le surnageant. Les résultats obtenus font l'objet de la courbe de la figure 1.
Excepté la concentration en ladite cyclodextrine qui varie de 0 à 32mM, on procède selon le même protocole qu'à l'exemple 1; les résultats sont illustrés par la courbe de la figure 2.
On procède selon le même protocole qu'à l'exemple 1. Les résultats sont représentés par la courbe de la figure 3.
On travaille selon les mêmes conditions qu'à l'exemple 1. Les résultats obtenus sont schématisés par la courbe de la figure 4.
On suit encore le même protocole qu'à l'exemple 1 sauf en ce que la concentration en bétacyclodextrine varie de 0 à 4mM et les résultats font l'objet de la courbe de la figure 5.
Ici encore on suit le même protocole qu'à l'exemple 1 sauf en ce que la concentration en hydroxypropybéta-cyclodextrine varie de 0 à 32mM et les résultats sont représentés par la courbe de la figure 6.

Row | Molecule | solubility at 72 h (water + betacyclodextrin, read-out: SOLUBILITE EN GRAMMES PAR LITRE dans eau + bétacyclodextrine) [µg/mL] | solubility at 72 h (water + hydroxypropylbetacyclodextrin, optimal solubility read from the curves at the adequate hydroxypropylbétacyclodextrine concentration (up to 32mM), 25°, 72 h, read-out: SOLUBILITE EN GRAMMES PAR LITRE dans eau + hydroxypropylbétacyclodextrine) [µg/mL] | solubility at 72 h (water without cyclodextrin, 25°, 72 h, read-out: SOLUBILITE EN GRAMMES PAR LITRE dans l'eau) [µg/mL] | SOLUBILITE EN GRAMMES PAR LITRE dans eau + bétacyclodextrine (optimal solubility read from the curves at the adequate bétacyclodextrine concentration (0 to 5mM; 0 to 4mM for dihydro-4-progestérone), 25°, 72 h) | SOLUBILITE EN GRAMMES PAR LITRE dans eau + hydroxypropylbétacyclodextrine (optimal solubility read from the curves at the adequate hydroxypropylbétacyclodextrine concentration (up to 32mM), 25°, 72 h) | SOLUBILITE EN GRAMMES PAR LITRE dans l'eau (water without cyclodextrin, 25°, 72 h)
1 | CC(=O)[C@H]1CC[C@H]2[C@@H]3CC[C@@H]4C[C@H](O)CC[C@]4(C)[C@H]3CC[C@]12C [Prégnanolone, prégnanol-3alpha-one-20] | 440 | 3000 | 5 (≈ 15.7 µM) | – | – | –
2 | prégnane-diol-3,20 [Dihydroprogestérone] | – | – | – | 0,06 GRAMMES PAR LITRE | 1,4 GRAMMES PAR LITRE | 0,005 GRAMMES PAR LITRE
